Experimental data reported in EP0420266A2, “Chromene or thiochromene derivatives, process for preparing the same, intermediate therefor, pharmaceutical compositions containing said derivatives and the use of said derivatives” (TANABE SEIYAKU CO., LTD., priority 1989, dated 1991).

Target: T1, HMG-CoA reductase (HMGR) (Rattus norvegicus, UniProt P51639)
T1 construct: Microsomes prepared from liver of rats administered with cholestyramine; from tissue
T1 sequence (P51639 1-887): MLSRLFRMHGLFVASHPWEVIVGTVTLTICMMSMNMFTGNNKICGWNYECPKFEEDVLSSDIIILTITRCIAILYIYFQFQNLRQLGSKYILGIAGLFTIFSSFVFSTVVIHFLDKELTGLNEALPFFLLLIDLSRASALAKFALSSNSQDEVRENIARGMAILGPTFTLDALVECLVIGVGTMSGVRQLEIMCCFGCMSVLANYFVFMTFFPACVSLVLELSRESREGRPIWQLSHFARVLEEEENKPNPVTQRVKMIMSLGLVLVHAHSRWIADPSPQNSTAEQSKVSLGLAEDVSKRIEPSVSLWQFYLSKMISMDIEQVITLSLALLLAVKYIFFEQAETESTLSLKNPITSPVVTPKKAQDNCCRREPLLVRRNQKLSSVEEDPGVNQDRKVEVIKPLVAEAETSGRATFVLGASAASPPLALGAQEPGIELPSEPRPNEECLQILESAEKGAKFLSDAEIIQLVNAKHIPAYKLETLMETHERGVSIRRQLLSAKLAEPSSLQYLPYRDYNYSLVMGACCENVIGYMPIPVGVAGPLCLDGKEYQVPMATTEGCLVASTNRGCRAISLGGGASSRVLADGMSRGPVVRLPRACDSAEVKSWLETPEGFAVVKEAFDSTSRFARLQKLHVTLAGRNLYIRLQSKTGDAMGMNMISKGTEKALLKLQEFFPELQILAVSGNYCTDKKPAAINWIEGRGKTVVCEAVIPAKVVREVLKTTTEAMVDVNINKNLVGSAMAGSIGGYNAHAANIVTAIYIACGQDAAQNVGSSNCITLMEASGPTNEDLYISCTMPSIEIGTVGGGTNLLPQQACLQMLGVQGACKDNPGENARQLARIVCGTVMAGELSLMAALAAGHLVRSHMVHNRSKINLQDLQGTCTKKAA
Assay: Inhibitory activity against rat hepatic microsomal HMG-CoA reductase (HMGR)
Format: biochemical
Details: rat liver microsomes, ¹⁴C-HMG-CoA substrate, 10 minutes incubation
Description: Experiment [Inhibitory Activity against Rat Hepatic Microsomal HMG-CoA reductase (HMGR)]
HMGR activities of microsomes were measured in accordance with the method of N. L. Young et al., Methods in Enzymology, 71, 498 (1981).
Microsomes prepared from liver of rats administered with cholestyramine were mixed with a solution of the compounds to be tested in dimethyl sulfoxide and ¹⁴C-HMG-CoA (substrate). After the mixture was incubated for 10 minutes, the reaction was quenched with 6N hydrochloric acid and the mixture was allowed to stand at 37°C for 15 minutes, followed by centrifugation. The supernatant was spotted on thin layer chromatography (TLC; Kieselgel 60F254 manufactured by Merck) and developed with toluene/acetone (1:1). The spot of ¹⁴C-mevalonolactone was collected and the amount of isotope was measured with a scintillation counter (Type 4640 TRI-CARB. manufactured by Paccard) to calculate an amount of the formed mevalonolactone. By comparing amounts of the formed mevalonolactone in the group treated with test compounds and the control group (without test compounds), HMGR activity inhibition rates of the test compounds were calculated.

| Compound | HMGR Inhibition (%) (Conc. of Compounds 10⁻⁶ M) | HMGR Inhibition (%) (Conc. of Compounds 10⁻⁷ M) |
| --- | --- | --- |
| CCC1(CC)Oc2ccccc2C(c2ccc(F)cc2)=C1/C=C/[C@H]1C[C@H](O)CC(=O)O1 (relative stereo) [B, Trans-(E)-6-[2-(4-(4-fluorophenyl)-2,2-diethyl-2H-chromen-3-yl)-1-ethenyl]-3,4,5,6-tetrahydro-4-hydroxy-2H-pyran-2-one] | 84 | 32 |
| CCC1(CC)Sc2ccccc2C(c2ccc(F)cc2)=C1/C=C/[C@@H](O)C[C@@H](O)CC(=O)[O-].[Na+] (relative stereo) [C, (+)-(3R*,5S*)-(E)-7-[4-(4-Fluorophenyl)-2,2-diethyl-2H-thiochromen-3-yl]-3,5-dihydroxy-6-heptenoic acid sodium salt] | 90 | 45 |
| CCC1(CC)Oc2ccccc2C(c2ccc(F)cc2)=C1/C=C/[C@@H](O)C[C@@H](O)CC(=O)[O-].[Na+] (relative stereo) [A, (3R*,5S*)-(E)-7-[4-(4-Fluorophenyl)-2,2-diethyl-2H-chromen-3-yl]-3,5-dihydroxy-6-heptenoic acid sodium salt] | 100 | 67 |
